Like-named read-outs stand apart in the source and are kept apart here.
What was measured:
[1] = target: T1, NR1-3/NR2A NMDA receptor (Homo sapiens, UniProt Q05586+Q12879); assay: Functional NMDA antagonism, fluorimetric intracellular calcium measurement on HEK293 cells expressing NR1-3/NR2A; type: cell-based; design: NR1-3/NR2A % inhibition: dose or concentration left out as unconfirmed; conditions: for inhibition at 10 µM: reference compounds; for inhibition at 15 µM: NMDA evoked calcium rise
T1 construct: expressed in transfected cells
Experimental: (§1) (2003)]. […] Compounds were tested for their inhibitory action on NMDA evoked cytosolic calcium elevations in fluorescent calcium measurements. Studies were performed 48-72 h after addition of the inducing agent. Ketamine (500 μM) was also present during the induction in order to prevent cytotoxicity.
(§2) Since NMDA receptors are known to be permeable to calcium ions upon excitation, the extent of NMDA receptor activation, and its inhibition by functional antagonists can be characterized by measuring the rise in the intracellular calcium concentration following agonist (NMDA) application onto the cells. Since there is very high sequence homology between rat and human NMDA receptors (99, 95, 97% for NR1, NR2A, and NR2B subunits, respectively), it is believed that there is little, if any, difference in their pharmacological sensitivity.
(§3) The intracellular calcium measurements are carried out on HEK293 cells expressing NR1a and NR2B or NR2A NMDA receptor subunits. The cells are plated onto standard 96-well microplates and the cultures are maintained in an atmosphere of 95% air −5% CO2 at 37° C. until testing.
(§4) The cells are loaded with a fluorescent Ca^2+-sensitive dye, Fluo-4/AM (2-2.5 μM) prior to testing. Loading is stopped by washing twice with the solution used also during the measurement (140 mM NaCl, 5 mM KCl, 2 mM CaCl2, 5 mM HEPES [4-(2-hydroxyethyl)-1-piperazineethane-sulfonic acid], 5 mM HEPES-Na, 20 mM glucose, 10 μM glycine, pH=7.4). Then the test compound dissolved in the above solution (90 μl/well) is added. Intracellular calcium measurements are carried out with a plate reader fluorimeter. A rise in Fluo-4-fluorescence that reflects the intracellular calcium concentration is induced by application of 200 μM NMDA. Inhibitory potency of the test compound is assessed by measuring the reduction in the calcium elevation in the presence of different concentrations of the compound.
(§5) Inhibitory potency of a compound at a single concentration point is expressed as percent inhibition of the control NMDA response. For NR1a/NR2B expressing cells concentration-inhibition curves are produced. Sigmoidal concentration-inhibition curves are fitted over the data and IC50 values are defined as the concentration that produces half of the maximal inhibition that could be achieved with the compound. Mean IC50 values are derived from at least three independent experiments. For NR1-3/NR2A expressing cells antagonism of NMDA induced rise in intracellular calcium concentration by compounds of the present invention and reference compounds was tested at 10 and 15 microM concentration, respectively.

[2] = system: NMRI mice; assay: Mouse formalin test (second phase, licking/biting time); type: in vivo; conditions: 15 min before formalin, licking time 20-25 min after formalin; for ED50: Mus musculus, po; for ED50 in mouse formalin test: p.o.
Experimental: Injection of diluted formalin into the hind paw of rats or mice is known to elicit a biphasic pain-related behavior measured as time spent by licking/biting of the injured paw. The second phase is generally defined as pain related events detected in the 15-60 min. time interval after formalin injection. It is known that NMDA receptors are involved in the second phase of response to formalin injection and this behavioral response is sensitive to blockade of NMDA receptors [Dickenson, A. and Besson J.-M. (Editors): Chapter 1, pp. 6-7: Animal models of Analgesia; and Chapter 8, pp. 180-183: Mechanism of Central Hypersensitivity: Excitatory Amino Acid Mechanisms and Their Control—In Pharmacology of Pain. Springer-Verlag (Berlin) 1997.] Therefore, we used the second phase of formalin test to characterize the efficacy of compounds in vivo. Inhibition of the second phase of response is considered to indicate an analgesic effect against chemically-induced persistent pain [Hunskaar, S., et al.: Formalin Test in Mice, a Useful Technique for Evaluating Mild Analgesics, Journal of Neuroscience Methods, 14 (1985) 69-76.]
Male albino NMRI mice (20-25 g) were used. Prior to the experiment any solid food was withdrawn for approx. 16 hours but the animals had free access to 20% glucose solution. The animals were allowed 1 hour acclimatization period in a glass cylinder (cc. 15 cm in diameter), then moved to an identical cylinder with a mirror placed behind to facilitate observation. The test substances were suspended in 5% tween-80 (10 ml per kg body weight). and administered orally by gavage 15 min before the formalin injection (20 μl of 1% formalin in 0.9% saline injected subcutaneously into the dorsal surface of the right hind paw). The time spent by licking and biting of the injected paw was measured from 20 to 25 min. after the formalin injection.

[3] = system: NMRI mice; assay: as above; type: in vivo
[4] = target: T2, NR1a/NR2B NMDA receptor (Rattus norvegicus, UniProt P35439+Q00960); assay: Functional NMDA antagonism, fluorimetric intracellular calcium measurement on HEK293 cells expressing NR1a/NR2B; type: cell-based
T2 construct: expressed in transfected cells
Experimental: Compounds were tested for their inhibitory action on NMDA evoked cytosolic calcium elevations in fluorescent calcium measurements. Studies were performed 48-72 h after addition of the inducing agent. Ketamine (500 μM) was also present during the induction in order to prevent cytotoxicity.
Since NMDA receptors are known to be permeable to calcium ions upon excitation, the extent of NMDA receptor activation, and its inhibition by functional antagonists can be characterized by measuring the rise in the intracellular calcium concentration following agonist (NMDA) application onto the cells.
The intracellular calcium measurements are carried out on HEK293 cells expressing NR1a and NR2B or NR2A NMDA receptor subunits.
as §4, with “Loading” for “The cells are loaded with a fluorescent Ca^2+-sensitive dye, Fluo-4/AM (2-2.5 μM) prior to testing. Loading”
as §5

[5] = target: T3, NR1-3/NR2A NMDA receptor (Homo sapiens, UniProt Q12879); assay: Functional NMDA antagonism, fluorimetric intracellular calcium measurement on HEK293 cells expressing NR1-3/NR2A; type: cell-based; design: NR1-3/NR2A % inhibition: dose or concentration left out as unconfirmed; conditions: reference compounds
T3 construct: expressed in transfected cells
Experimental: as §1, §2, §3, §4, §5

[6] = HEK293 cells expressing NR1a/NR2B, 200 μM NMDA evoked calcium rise, compounds of the invention, read-out: NR1a/NR2B IC50
[7] = HEK293 cells expressing NR1a/NR2B, reference compounds, read-out: NR1a/NR2B IC50

T2 sequence (Q00960 27-1482, other chains not shown): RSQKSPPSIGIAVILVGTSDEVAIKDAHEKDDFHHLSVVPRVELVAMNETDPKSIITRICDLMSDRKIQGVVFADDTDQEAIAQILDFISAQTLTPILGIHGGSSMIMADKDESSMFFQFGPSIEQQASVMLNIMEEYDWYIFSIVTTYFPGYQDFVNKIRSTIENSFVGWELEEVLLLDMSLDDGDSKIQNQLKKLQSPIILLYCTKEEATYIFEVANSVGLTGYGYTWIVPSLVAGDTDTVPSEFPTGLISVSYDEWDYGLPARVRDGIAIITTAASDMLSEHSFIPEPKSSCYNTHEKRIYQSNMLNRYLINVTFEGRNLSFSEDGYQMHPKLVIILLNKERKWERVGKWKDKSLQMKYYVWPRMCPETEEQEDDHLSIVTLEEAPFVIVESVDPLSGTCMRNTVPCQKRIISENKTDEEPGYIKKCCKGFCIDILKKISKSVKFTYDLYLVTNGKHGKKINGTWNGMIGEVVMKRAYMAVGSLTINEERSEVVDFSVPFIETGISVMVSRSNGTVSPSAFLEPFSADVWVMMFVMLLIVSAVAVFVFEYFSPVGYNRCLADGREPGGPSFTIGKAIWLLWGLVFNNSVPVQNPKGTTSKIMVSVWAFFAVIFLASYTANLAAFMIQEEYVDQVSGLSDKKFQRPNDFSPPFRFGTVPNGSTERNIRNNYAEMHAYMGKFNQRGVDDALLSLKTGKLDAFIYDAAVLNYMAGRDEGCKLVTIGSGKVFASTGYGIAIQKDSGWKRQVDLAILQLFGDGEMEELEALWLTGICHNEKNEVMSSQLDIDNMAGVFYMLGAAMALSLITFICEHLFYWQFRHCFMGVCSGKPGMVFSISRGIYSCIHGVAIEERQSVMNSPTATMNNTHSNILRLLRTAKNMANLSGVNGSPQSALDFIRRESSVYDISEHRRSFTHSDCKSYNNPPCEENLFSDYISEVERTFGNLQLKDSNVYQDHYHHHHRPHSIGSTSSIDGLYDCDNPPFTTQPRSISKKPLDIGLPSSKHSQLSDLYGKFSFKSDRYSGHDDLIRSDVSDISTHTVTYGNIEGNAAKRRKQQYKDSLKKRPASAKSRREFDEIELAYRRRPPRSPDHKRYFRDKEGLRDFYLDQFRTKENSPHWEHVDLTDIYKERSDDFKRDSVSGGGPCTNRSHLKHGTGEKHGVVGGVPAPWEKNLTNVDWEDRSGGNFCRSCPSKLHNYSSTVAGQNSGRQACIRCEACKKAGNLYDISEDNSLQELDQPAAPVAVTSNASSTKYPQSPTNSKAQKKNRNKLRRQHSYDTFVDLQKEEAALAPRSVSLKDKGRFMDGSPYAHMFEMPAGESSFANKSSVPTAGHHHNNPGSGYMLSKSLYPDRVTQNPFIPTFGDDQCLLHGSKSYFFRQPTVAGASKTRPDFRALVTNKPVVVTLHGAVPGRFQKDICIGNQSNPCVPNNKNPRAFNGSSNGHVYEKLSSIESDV
T1 sequence (Q12879 23-1464, other chains not shown): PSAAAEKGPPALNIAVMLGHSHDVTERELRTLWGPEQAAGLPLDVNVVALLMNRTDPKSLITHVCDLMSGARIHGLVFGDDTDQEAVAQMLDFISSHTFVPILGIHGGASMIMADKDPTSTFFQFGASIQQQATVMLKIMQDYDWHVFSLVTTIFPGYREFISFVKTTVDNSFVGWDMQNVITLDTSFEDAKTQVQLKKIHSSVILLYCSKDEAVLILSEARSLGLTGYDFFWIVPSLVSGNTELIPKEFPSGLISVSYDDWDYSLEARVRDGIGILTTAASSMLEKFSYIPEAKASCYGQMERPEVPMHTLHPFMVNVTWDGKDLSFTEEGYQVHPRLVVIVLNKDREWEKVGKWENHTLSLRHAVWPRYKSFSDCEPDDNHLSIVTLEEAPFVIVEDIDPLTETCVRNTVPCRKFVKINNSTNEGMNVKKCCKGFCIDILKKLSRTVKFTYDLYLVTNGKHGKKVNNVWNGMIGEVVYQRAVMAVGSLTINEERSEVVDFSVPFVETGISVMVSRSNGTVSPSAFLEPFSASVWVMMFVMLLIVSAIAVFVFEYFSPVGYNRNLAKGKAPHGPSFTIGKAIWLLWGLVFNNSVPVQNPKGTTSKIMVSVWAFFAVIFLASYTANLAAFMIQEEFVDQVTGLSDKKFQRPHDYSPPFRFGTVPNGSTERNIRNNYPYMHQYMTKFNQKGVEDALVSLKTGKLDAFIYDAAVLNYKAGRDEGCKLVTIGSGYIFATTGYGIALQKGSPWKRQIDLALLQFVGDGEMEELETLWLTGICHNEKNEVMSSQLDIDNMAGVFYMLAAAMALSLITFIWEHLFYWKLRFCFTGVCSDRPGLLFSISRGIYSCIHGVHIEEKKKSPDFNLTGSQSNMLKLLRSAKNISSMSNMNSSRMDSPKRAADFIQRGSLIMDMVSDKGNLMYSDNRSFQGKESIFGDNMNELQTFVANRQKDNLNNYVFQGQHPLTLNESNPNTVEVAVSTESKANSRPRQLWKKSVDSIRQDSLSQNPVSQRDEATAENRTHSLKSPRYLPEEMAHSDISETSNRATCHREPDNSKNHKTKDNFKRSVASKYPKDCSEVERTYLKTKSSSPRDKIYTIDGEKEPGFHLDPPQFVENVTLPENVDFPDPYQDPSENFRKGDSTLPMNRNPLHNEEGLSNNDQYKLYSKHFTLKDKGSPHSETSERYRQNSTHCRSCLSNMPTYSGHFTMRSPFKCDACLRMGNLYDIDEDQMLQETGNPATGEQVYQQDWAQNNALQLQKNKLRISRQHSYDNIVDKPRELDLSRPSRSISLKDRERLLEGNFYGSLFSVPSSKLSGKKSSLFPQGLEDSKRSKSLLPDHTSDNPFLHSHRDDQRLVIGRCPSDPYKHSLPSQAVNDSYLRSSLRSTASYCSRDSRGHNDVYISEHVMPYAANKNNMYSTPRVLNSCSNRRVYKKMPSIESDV
T3 sequence (Q12879 23-1464, other chains not shown): as above

CC(C(O)c1ccc(O)cc1)N1CCC(Cc2ccccc2)CC1 (stereo not drawn) [ifenprodil, erythro-2-(4-benzylpiperidino)-1-(4-hydroxyphenyl)-1-propanol, reference compound]
inhibition at 10 µM [1]: -2.7%

C[C@@H]([C@@H](O)c1ccc(O)cc1)N1CCC(O)(c2ccccc2)CC1 [CP 101,606, (1S,2S)-1-(4-hydroxyphenyl)-2-(4-hydroxy-4-phenylpiperidine-1-yl)-1-propanol, reference compound]
ED50 [2]: > 20 mg/kg | ED50 ([3]; sc): > 20 mg/kg | inhibition at 10 µM [1]: 2.5%

O=C(c1cc(=O)c2cc(O)ccc2[nH]1)N1CCC(Oc2ccccc2)CC1 [Example 10, 6-Hydroxy-2-(4-phenoxy-piperidine-1-carbonyl)-1H-quinolin-4-one]
IC50 [4, 6]: 28 nM | inhibition at 15 µM [1]: 0.2%

O=C(c1cc(=O)c2cc3[nH]c(=O)oc3cc2[nH]1)N1CCC(Cc2ccccc2)CC1 [Example 9, 6-(4-Benzyl-piperidine-1-carbonyl)-1,5-dihydro-oxazolo[4,5-g]quinoline-2,8-dione]
IC50 [4, 6]: 5.6 nM | ED50 [2]: > 20 mg/kg | inhibition at 15 µM [1]: -2.1%

Cc1ccc(OC2CCN(C(=O)c3cc(=O)c4cc(O)ccc4[nH]3)CC2)cc1 [Example 8, 6-Hydroxy-2-(4-p-tolyloxy-piperidine-1-carbonyl)-1H-quinolin4-one]
IC50 [4, 6]: 3.3 nM | ED50 [2]: 8.2 mg/kg | inhibition at 15 µM [1]: -3.5%

Cc1ccc(CC2(O)CCN(CCOc3ccc(O)cc3)CC2)cc1 [Co-101244, 1-[2-(4-hydroxyphenoxy)ethyl]-4-hydroxy-4-(4-methylbenzyl)piperidine, reference compound]
IC50 [4, 7]: 4.8 nM | ED50 in mouse formalin test [2]: inactive | ED50 ([3]; ip): 5.9 mg/kg | inhibition at 10 µM [1]: -8.7%

O=C(c1cc(=O)c2cc(O)ccc2[nH]1)N1CCC(OCc2ccccc2)CC1 [Example 5, 2-(4-Benzyloxy-piperidine-1-carbonyl)-6-hydroxy-1H-quinolin-4-one]
IC50 [4, 6]: 21.5 nM | inhibition at 15 µM [1]: 5.7%

Cc1ccc(CC2CCN(C(=O)c3cc(=O)c4cc(O)ccc4[nH]3)CC2)cc1 [Example 3, 6-Hydroxy-2-[4-(4-methyl-benzyl)-piperidine-1-carbonyl]-1H-quinolin-4-one]
IC50 [4, 6]: 3.8 nM | ED50 [2]: 8.9 mg/kg | inhibition at 15 µM [1]: -2.4%

O=C(CCN1CCC(Cc2ccc(F)cc2)CC1)c1ccc2[nH]c(=O)oc2c1 [EMD 95885, reference compound]
IC50 [4, 7]: 48 nM | ED50 in mouse formalin test [2]: 3.7 mg/kg | NR1-3/NR2A % inhibition [5]: 0.1%

O=C(c1cc(=O)c2cc(O)ccc2[nH]1)N1CCC(Cc2ccccc2)CC1 [Example 2, 2-(4-Benzyl-piperidine-1-carbonyl)-6-hydroxy-1H-quinolin-4-one]
IC50 [4, 6]: 3.7 nM | ED50 [2]: > 20 mg/kg | inhibition at 15 µM [1]: 7%

O=C(c1cc(=O)c2cc(O)ccc2[nH]1)N1CCC(COc2ccccc2)CC1 [Example 6, 6-Hydroxy-2-(4-Phenoxymethyl-piperidine-1-carbonyl)-1H-quinolin-4-one]
IC50 [4, 6]: 8.9 nM | ED50 [2]: 0.46 mg/kg | inhibition at 15 µM [1]: 14%

CC(CN1CCC(Cc2ccccc2)CC1)C(O)c1ccc(O)cc1 (stereo not drawn) [Ro 25.6981, R—(R*,S*)-1-(4-hydroxyphenyl)-2-methyl-3-[4-(phenylmethyl)piperidin-1-yl]-1-propanol, reference compound]
IC50 [4]: 57 nM | ED50 in mouse formalin test [2]: inactive | ED50 ([3]; ip): 5.1 mg/kg | inhibition at 10 µM [1]: 1%

O=C(c1cc(=O)c2cc(O)ccc2[nH]1)N1CCC(Oc2ccc(Cl)cc2)CC1 [Example 7]
IC50 [4, 6]: 5.1 nM | ED50 [2]: > 20 mg/kg | inhibition at 15 µM [1]: 5.1%

O=C(c1cc(=O)c2cc(O)ccc2[nH]1)N1CCC(Cc2ccc(Cl)cc2)CC1 [Example 4, 2-[4-(4-Chloro-benzyl)-piperidine-1-carbonyl]-6-hydroxy-1H-quinolin-4-one]
IC50 [4, 6]: 1.9 nM | ED50 [2]: > 20 mg/kg | inhibition at 15 µM [1]: -5.1%

O=c1[nH]c2ccc([S+]([O-])CCN3CCC(Cc4ccc(F)cc4)CC3)cc2o1 (centres unmarked) [CI-1041, 6-{2-[4-(4-fluoro-benzyl)-piperidin-1-yl]-ethanesulfinyl}-3H-benzooxazol-2-one, reference compound]
IC50 [4]: 8.4 nM | ED50 [2]: 2.4 mg/kg | inhibition at 10 µM [1]: 21%

Oc1ccc(OCCN2CCC(Cc3ccc(F)cc3)CC2)cc1 [Co-111103, 1-[2-(4-hydroxyphenoxy)ethyl]-4-(4-fluorobenzyl)piperidine, reference compound]
ED50 [2]: > 20 mg/kg

O=C(c1cc(=O)c2cc(O)ccc2[nH]1)N1CCC(Cc2ccc(F)cc2)CC1 [Example 1, 2-[4-(4-Fluoro-benzyl)-piperidine-1-carbonyl]-6-hydroxy-1H-quinolin-4-one]
IC50 [4, 6]: 4 nM | ED50 [2]: 9.5 mg/kg | inhibition at 15 µM [1]: -0.9%

Source: patent US20090012118A1, “Kynurenic Acid Amide Derivatives as Nr2b Receptor Antagoni” (priority 2004, published 2009)
